Test results reported in patent US12655171B2, “Compounds for activating invariant natural killer T-cells and methods of use in eliminating inflammatory senescent cells” (Deciduous Therapeutics, Inc., priority 2021, dated 2026).

Experiments:
human iTCR = assay: In vitro activation of human iTCR through Jurkat reporter cell line (JiNKT, GFP under NFkB promoter) with drug-loaded BWSTIM cells; assay type: cell-based; conditions: for EC50 of the dose response based on percentage GFP+ cells, compared to α-GalCer: BWSTIM loaded 4 hours, co-culture with JiNKT 18 to 24 hours, FIG. 1
Method: In order to determine the human iTCR activation potential induced by the compounds described herein, a jurkat cell line (JiNKT) was transfected with the human iTCR, and GFP under the NFkB promoter (cell line licensed from the Medical University of Vienna). A BWS147 cell line (BWSTIM) was also transfected with CD80 and CD1d to act as the antigen-presenting cell.
(§1) DCD molecules or α-GalCer were both dissolved in DMSO at a 5 mg/mL stock solution. BWSTIM cells were loaded with DCD molecules or α-GalCer at varying concentrations for 4 hours at 37° C. at a concentration of 20 k cells/well in 200 μL of media in a u-bottom 96 well dish. BWSTIM cells were washed 2× with media, then incubated with JiNKT cells at a concentration of 80 k cells/well in a u-bottom 96 well dish. Cells were co-cultured for 18 to 24 hours. The percentage of cells expressing high levels of GFP was measured through flow cytometry (after gating out the mCD45+ BWSTIM cells).
A jurkat cell line (JiNKT) was transfected with the human iTCR, and GFP under the NFkB promoter. A BWS147 cell line (BWSTIM) was also transfected with CD80 and CD1d to act as the antigen-presenting cell. A mouse iNKT hybridoma cell line (DN3.2) was also used as the iNKT. […]
as §1, with “GVK” for “DCD”, “compounds” for “DCD molecules or α-GalCer at varying concentrations”, “for” for “for 18 to”, “cytometry. 1 μg/mL of molecule GVK1a, GVK1b, GVK1c, or GVK1f was incubated with BWSTIM+JiNKT, and compared to α-GalCer.” for “cytometry (after gating out the mCD45+ BWSTIM cells).”

primary human iNKT cells = assay: Cytokine secretion of primary human iNKT cells co-cultured with drug-loaded BWSTIM cells; assay type: cell-based; conditions: BWSTIM loaded with 10 μg/mL
Method: In order to determine the activation profile induced by the compounds described herein, primary human iNKT cells were co-cultured with drug-loaded BWSTIM cells.
Day 0: PBMCs were isolated from human blood using the STEMCELL TECHNOLOGIES™ SepMate™ PBMC isolation system. iNKT cells were then selected using the Miltenyi NKT magnetic cell separation kit.
Day 2: DCD molecules or α-GalCer were both dissolved in DMSO at a 5 mg/mL stock solution. BWSTIM cells were fixed with mitomycin C, then loaded with 10 μg/mL of DCD molecules or α-GalCer for 4 hours at 37° C. at a concentration of 20 k cells/well in 200 μL of media in a u-bottom 96 well dish. Cells were co-cultured with 80 k 6B11+ selected primary human iNKT cells.
D4: Media was collected. Cytokines were measured using the Satorious 4Plex kit on the iQue3 cytometer.
GVK molecules or α-GalCer were both dissolved in DMSO at a 5 mg/mL stock solution. BWSTIM cells were loaded with compounds for 4 hours at 37° C. at a concentration of 20 k cells/well in 200 μL of media in a u-bottom 96 well dish. Cells were co-cultured with 100 k 6B11+ selected primary human iNKT cells. Media was collected 2 days later. Cytokines were measured using the Satorious 4Plex kit on the iQue3 cytometer.

serum IFNγ = assay: In vivo serum IFNγ (ELISA) in C57BL/6J mice; conditions: 2 μg I.P.; twenty hours post-injection; FIG. 4A
Method: In order to determine the expansion induced by the molecules described herein, molecules were injected into C57BL/6J mice. Serum IFNγ levels and the expansion of iNKT cells within splenocytes was measured 4 days post-IP injection.
Eight weeks old C57BL/6J mice were injected (I.P.) with 2 μg of α-GalCer or DCD molecules. Molecules were either dissolved in DMSO at a 5 mg/mL stock solution, or formulated into liposomes through thin-film rehydration, then extrusion through 200 nm filters. Liposome-based formulations were constructed using soy phosphatidylcholine, cholesterol, and DCD or α-GalCer in a 2:1:0.15 ratio. Twenty hours post-injection, blood was collected from the tail to measure the level of serum IFNγ using an ELISA kit from Biolegend. Four days post-injection, the mice were sacrificed and the spleenocytes were isolated. The percentage of iNKT cells within the spleens was measured using flow cytometry, selecting for live cells and mouse CD1d-α-GalCer tetramer+ cells.

Compound	EC50 of the dose response based on percentage GFP+ cells, compared to α-GalCer (human iTCR)	further results
CCCCCCCCCCCCCC[C@@H](O)[C@@H](O)[C@H](COC1OC(CO)C(O)C(O)C1O)NC(=O)CCCCCCCCCCCC12C3C4C5C3C1C5C42 (some centres unmarked) [DCD-103]	lower EC50s compared to α-GalCer	–
CCCCCCCCCCCCCC[C@@H](O)[C@@H](O)[C@H](COC1OC(CO)C(O)C(O)C1O)n1cc(CCCCCCN(CCCCCCC)CCCCCCC)nn1 (some centres unmarked) [DCD-104]	lower EC50s compared to α-GalCer	IFNγ secretion compared to the no-compound control (primary human iNKT cells; FIG. 3A): significantly higher levels; IL6 secretion compared to the no-compound control (primary human iNKT cells; FIG. 3B): significantly higher levels; TNFα secretion compared to the no-compound control (primary human iNKT cells; FIG. 3C): significantly higher levels
CCCCCCCCCCCCCC[C@@H](O)[C@@H](O)[C@H](COC1OC(CO)C(O)C(O)C1O)NC(=O)CCCCCCCCCCC12C3C4C5C3C1C5C42 (some centres unmarked) [DCD-114]	lower EC50s compared to α-GalCer	–
CCCCCCCCCCCCCC[C@@H](O)[C@@H](O)[C@H](COC1OC(CO)C(O)C(O)C1O)NC(=O)CCCCCCCCCCC1CCN(C(=O)OC(C)(C)C)C1 (some centres unmarked) [DCD-128]	lower EC50s compared to α-GalCer	–
CCCCCCCCCCCCCC[C@@H](O)[C@@H](O)[C@H](COC1OC(CO)C(O)C(O)C1O)NC(=O)CCCCCCCCCCN1CCS(=O)(=O)CC1 (some centres unmarked) [DCD-136]	lower EC50s compared to α-GalCer	–
CCCCCCCCCCCCCC[C@@H](O)[C@@H](O)[C@H](COC1OC(CO)C(O)C(O)C1O)NC(=O)CCCCCCCCCOC1CCS(=O)(=O)CC1 (some centres unmarked) [DCD-138]	lower EC50s compared to α-GalCer	–
CCCCCCCCCCCCCC[C@@H](O)[C@@H](O)[C@H](COC1OC(CO)C(O)C(O)C1O)NC(=O)CCCCCCCOCCC1CCOCC1 (some centres unmarked) [DCD-140]	lower EC50s compared to α-GalCer	–
CCCCCCCCCCCCCC[C@@H](O)[C@@H](O)[C@H](COC1OC(CO)C(O)C(O)C1O)NC(=O)CCCCCCCCOCC1CCOCC1 (some centres unmarked) [DCD-141]	lower EC50s compared to α-GalCer	–
CCCCCCCCCCCCCC[C@@H](O)[C@@H](O)[C@H](COC1OC(CO)C(O)C(O)C1O)NC(=O)CCCCCCOCCCC1CCOCC1 (some centres unmarked) [DCD-143]	lower EC50s compared to α-GalCer	–
CCCCCCCCCCCCCC[C@@H](O)[C@@H](O)[C@H](COC1OC(CO)C(O)C(O)C1O)NC(=O)CCCCCOCCCCC1CCOCC1 (some centres unmarked) [DCD-144]	lower EC50s compared to α-GalCer	–
CCCCCCCCCCCCCC[C@@H](O)[C@@H](O)[C@H](COC1OC(CO)C(O)C(O)C1O)NC(=O)CCCCCCCCCCCCCCCCCCCCCCC12CC(F)(C1)C2 (some centres unmarked) [DCD-148]	lower EC50s compared to α-GalCer	–
CCCCCCCCCCCCCC[C@@H](O)[C@@H](O)[C@H](COC1OC(CO)C(O)C(O)C1O)NC(=O)CCCCCCCCCCCCCCCCCCCCCC12CC(F)(C1)C2 (some centres unmarked) [DCD-151]	lower EC50s compared to α-GalCer	–
CCCCCCCCCCCCCCCCCC[Si](C)(C)CCCCCCC(=O)N[C@@H](COC1OC(CO)C(O)C(O)C1O)[C@H](O)[C@H](O)CCCCCCCCCCCCCC (some centres unmarked) [DCD-152]	–	average serum IFNγ compared to α-GalCer (serum IFNγ): higher than the average serum IFNγ of C57BL/6J mice treated with α-GalCer
CCCCCCCCCCCCCC[C@@H](O)[C@@H](O)[C@H](COC1OC(CO)C(O)C(O)C1O)NC(=O)CCCCCCCCCCCCCCCCCCCCCCCC12CC(F)(C1)C2 (some centres unmarked) [DCD-155]	lower EC50s compared to α-GalCer	average serum IFNγ compared to α-GalCer (serum IFNγ): higher than the average serum IFNγ of C57BL/6J mice treated with α-GalCer

Second part, led by results:

EC50 of the dose response based on percentage GFP+ cells, compared to α-GalCer (human iTCR)	Compound	further results
lower EC50s compared to α-GalCer	CCCCCCCCCCCCCC[C@@H](O)[C@@H](O)[C@H](COC1OC(CO)C(O)C(O)C1O)NC(=O)CCCCCCCCCCCC12CC(F)(C1)C2 (some centres unmarked) [DCD-113]	–
lower EC50s compared to α-GalCer	CCCCCCCCCCCCCC[C@@H](O)[C@@H](O)[C@H](COC1OC(CO)C(O)C(O)C1O)NC(=O)CCCCCCCCCCC1COC1 (some centres unmarked) [DCD-118]	–
lower EC50s compared to α-GalCer	CCCCCCCCCCCCCC[C@@H](O)[C@@H](O)[C@H](COC1OC(CO)C(O)C(O)C1O)NC(=O)CCCCCCCCCCC1(C)COC1 (some centres unmarked) [DCD-119]	–
lower EC50s compared to α-GalCer	CCCCCCCCCCCCCC[C@@H](O)[C@@H](O)[C@H](COC1OC(CO)C(O)C(O)C1O)NC(=O)CCCCCCCCCCC1CCOC1 (some centres unmarked) [DCD-121]	–
lower EC50s compared to α-GalCer	CCCCCCCCCCCCCC[C@@H](O)[C@@H](O)[C@H](COC1OC(CO)C(O)C(O)C1O)NC(=O)CCCCCCCCCCC1CCOCC1 (some centres unmarked) [DCD-122]	–
lower EC50s compared to α-GalCer	CCCCCCCCCCCCCC[C@@H](O)[C@@H](O)[C@H](COC1OC(CO)C(O)C(O)C1O)NC(=O)CCCCCCCCCCC1CN(C(=O)OC(C)(C)C)C1 (some centres unmarked) [DCD-125]	–
lower EC50s compared to α-GalCer	CCCCCCCCCCCCCC[C@@H](O)[C@@H](O)[C@H](COC1OC(CO)C(O)C(O)C1O)NC(=O)CCCCCCCCCCC1CCS(=O)(=O)CC1 (some centres unmarked) [DCD-127]	% GFP+ (human iTCR; ranking among tested compounds, at the lowest concentration): highest % GFP+ at the lowest concentration
lower EC50s compared to α-GalCer	CCCCCCCCCCCCCC[C@@H](O)[C@@H](O)[C@H](COC1OC(CO)C(O)C(O)C1O)NC(=O)CCCCCCCCCCN1CCOCC1.Cl (some centres unmarked) [DCD-130]	–
lower EC50s compared to α-GalCer	CCCCCCCCCCCCCC[C@@H](O)[C@@H](O)[C@H](COC1OC(CO)C(O)C(O)C1O)NC(=O)CCCCCCCCCCN1CCSCC1.Cl (some centres unmarked) [DCD-133]	–
lower EC50s compared to α-GalCer	CCCCCCCCCCCCCC[C@@H](O)[C@@H](O)[C@H](COC1OC(CO)C(O)C(O)C1O)NC(=O)CCCCCCCCCCS(=O)(=O)C(C)C (some centres unmarked) [DCD-137]	–
lower EC50s compared to α-GalCer	CCCCCCCCCCCCCC[C@@H](O)[C@@H](O)[C@H](COC1OC(CO)C(O)C(O)C1O)NC(=O)CCCCCCCCCOC1CCOCC1 (some centres unmarked) [DCD-139]	–
lower EC50s compared to α-GalCer	CCCCCCCCCCCCCC[C@@H](O)[C@@H](O)[C@H](COC1OC(CO)C(O)C(O)C1O)NC(=O)CCCCCCCCCCCCCCCCCCCCCCC1COC1 (some centres unmarked) [DCD-149]	–
lower EC50s compared to α-GalCer	CCCCCCCCCCCCCC[C@@H](O)[C@@H](O)[C@H](COC1OC(CO)C(O)C(O)C1O)NC(=O)CCCCCCCCCCCCCCCCCCCCCC1COC1 (some centres unmarked) [DCD-150]	–
